Values after ≈ are worked out from the molar mass of the structure shown. Where a name gives a salt, the structure may show the parent alone. Read-outs that look alike come from different tables or passages of the source.
Key:
S. Aureus HH 127 = assay: MIC in vitro, S. Aureus HH 127 (G+); assay type: cell-based; conditions: Staphylococcus aureus
S. Aureus SK 23390 = assay: MIC in vitro, S. Aureus SK 23390 (G+); assay type: cell-based; conditions: Staphylococcus aureus
Kleb. pneumoniae SK 2400 = assay: MIC in vitro, Kleb. pneumoniae SK 2400 (G-); assay type: cell-based; conditions: Klebsiella pneumoniae, SK2400
E. coli HH 33779 = assay: MIC in vitro, E. coli HH 33779 (G-); assay type: cell-based; conditions: Escherichia coli, HH33779
Kleb. pneumoniae SK 1200 = assay: MIC in vitro, Kleb. pneumoniae SK 1200 (G-); assay type: cell-based; conditions: Klebsiella pneumoniae, SK1200
Proteus morgani 179 = assay: MIC in vitro, Proteus morgani 179 (G-); assay type: cell-based
Entero. cloacae HH 31254 = assay: MIC in vitro, Entero. cloacae HH 31254 (G-); assay type: cell-based; conditions: Enterobacter cloacae, HH31254
[1] = test system: Serratia Marcescens ATCC 13880; assay: MIC in vitro, Serratia Marcescens ATCC 13880 (G-); assay type: cell-based; conditions: ATCC13880
E. coli 12140 = assay: mouse protection against E. coli 12140; assay type: in vivo; conditions: Escherichia coli, sc, S.C.
Excerpt: For comparison with known used compounds, data for cefuroxime, cefazolin and cephalothin are included.

Pseudo Aeruginosa HH 63 = assay: MIC in vitro, Pseudo Aeruginosa HH 63 (G-); assay type: cell-based
Strep. Faecalis HH 34358 = assay: MIC in vitro, Strep. Faecalis HH 34358 (G+); assay type: cell-based; conditions: Enterococcus faecalis
P. Mirabils PM 444 = assay: MIC in vitro, P. Mirabils PM 444 (G-); assay type: cell-based
E. coli SK 12140 = assay: MIC in vitro, E. coli SK 12140 (G-); assay type: cell-based; conditions: Escherichia coli, SK12140
S. villaluz SK 70390 = assay: MIC in vitro, S. villaluz SK 70390 (G+); assay type: cell-based
Salmonella ATCC 12176 = assay: MIC in vitro, Salmonella ATCC 12176 (G-); assay type: cell-based; conditions: ATCC12176
[2] = test system: Entero. aerogenes ATCC 13048; assay: MIC in vitro, Entero. aerogenes ATCC 13048 (G-); assay type: cell-based; conditions: Klebsiella aerogenes, ATCC13048
[3] = in vitro, G+, S. Aureus HH 127, read-out: MIC
[4] = in vitro, G+, S. Aureus SK 23390, read-out: MIC
[5] = in vitro, G-, Kleb. pneumoniae SK 2400, read-out: MIC
[6] = in vitro, G-, Kleb. pneumoniae SK 1200, read-out: MIC
[7] = in vitro, G-, Proteus morgani 179, read-out: MIC
[8] = in vitro, G-, Entero. cloacae HH 31254, read-out: MIC
[9] = in vitro, G+, Strep. Faecalis HH 34358, read-out: MIC
[10] = in vitro, G+, S. villaluz SK 70390, read-out: MIC
[11] = in vitro, G-, Salmonella ATCC 12176, read-out: MIC
[12] = in vitro, G-, Entero. aerogenes ATCC 13048, read-out: MIC

SMILES | MIC (S. Aureus HH 127; [3]) [µg/mL] | MIC (S. Aureus SK 23390; [4]) [µg/mL] | MIC (Kleb. pneumoniae SK 2400; [5]) [µg/mL] | MIC (Kleb. pneumoniae SK 1200; [6]) [µg/mL] | MIC (Proteus morgani 179; [7]) [µg/mL] | MIC (Entero. cloacae HH 31254; [8]) [µg/mL] | ED50 (E. coli 12140) [mg/kg] | MIC (Strep. Faecalis HH 34358; [9]) [µg/mL] | MIC (P. Mirabils PM 444) [µg/mL] | MIC (E. coli SK 12140) [µg/mL] | MIC (S. villaluz SK 70390; [10]) [µg/mL] | MIC (Salmonella ATCC 12176; [11]) [µg/mL] | MIC [2, 12] [µg/mL] | MIC (S. Aureus HH 127) [µg/mL] | MIC (S. Aureus SK 23390) [µg/mL] | MIC (Kleb. pneumoniae SK 2400) [µg/mL] | MIC (E. coli HH 33779) [µg/mL] | MIC (Kleb. pneumoniae SK 1200) [µg/mL] | MIC ([1]; Serratia marcescens) [µg/mL] | MIC (Pseudo Aeruginosa HH 63) [µg/mL] | other results
Cc1nnc(SCC2=C(C(=O)O)N3C(=O)[C@@H](NC(=O)Cn4cnnn4)[C@H]3SC2)s1 [Cefazolin, cefazolin] | 0.4 (≈ 0.88 µM) | 0.2 (≈ 0.44 µM) | 0.8 (≈ 1.76 µM) | 0.8 (≈ 1.76 µM) | 100 (≈ 220 µM) | 0.8 (≈ 1.76 µM) | 6.25 | 6.3 (≈ 13.9 µM) | 3.1 (≈ 6.82 µM) | 0.8 (≈ 1.76 µM) | 200 (≈ 440 µM) | 0.8 (≈ 1.76 µM) | 1.6 (≈ 3.52 µM) |  |  |  |  |  |  |  | MIC (E. coli HH 33779; in vitro, G-, E. coli HH 33779, read-out: MIC): 0.8 µg/mL (≈ 1.76 µM); MIC ([1]; in vitro, G-, Serratia Marcescens ATCC 13880, read-out: MIC): 100 µg/mL (≈ 220 µM); MIC (Pseudo Aeruginosa HH 63; in vitro, G-, Pseudo Aeruginosa HH 63, read-out: MIC): > 200 µg/mL
CO/N=C(\C(=O)N[C@@H]1C(=O)N2C(C(=O)O)=C(COC(N)=O)CS[C@H]12)c1ccco1 [Cefuroxim, cefuroxime] |  |  |  |  | 50 (≈ 118 µM) |  | 6.25 | 2.5 (≈ 5.89 µM) | 1.6 (≈ 3.77 µM) | 6.3 (≈ 14.8 µM) |  |  | 6.3 (≈ 14.8 µM) | 0.8 (≈ 1.89 µM) | 1.6 (≈ 3.77 µM) | 3.1 (≈ 7.3 µM) | 6.3 (≈ 14.8 µM) | 3.1 (≈ 7.3 µM) | 12.5 (≈ 29.5 µM) | > 200 | MIC (Entero. cloacae HH 31254): 3.1 µg/mL (≈ 7.3 µM); MIC (S. villaluz SK 70390): > 200 µg/mL; MIC (Salmonella ATCC 12176; Salmonella): 3.1 µg/mL (≈ 7.3 µM)
CC(=O)OCC1=C(C(=O)O)N2C(=O)[C@@H](NC(=O)Cc3cccs3)[C@H]2SC1 [Cephalothin, cephalothin] | 0.2 (≈ 0.504 µM) | 0.2 (≈ 0.504 µM) |  |  |  | 6.3 (≈ 15.9 µM) |  |  | 3.1 (≈ 7.82 µM) | 3.1 (≈ 7.82 µM) | 50 (≈ 126 µM) | 0.8 (≈ 2.02 µM) |  |  |  | 3.1 (≈ 7.82 µM) | 6.3 (≈ 15.9 µM) | 1.6 (≈ 4.04 µM) | > 200 | > 200 | MIC (Proteus morgani 179): > 200 µg/mL; MIC (Strep. Faecalis HH 34358): 12.5 µg/mL (≈ 31.5 µM); MIC [2]: 12.5 µg/mL (≈ 31.5 µM)
CO/N=C(\C(=O)N[C@@H]1C(=O)N2C(C(=O)O)=C(CSc3nnnn3CCC(=O)O)CS[C@H]12)c1ccco1 [Example 1, 7[Syn-2-methoxyimino-2-α-furylacetamido]-3-[1-(2-carboxyethyl)tetrazol-5-ylthiomethyl]-3-cephem-4-carboxylic acid, disodium salt] |  |  | 0.8 | 0.8 | 1.6 | 1.6 | 4.4 |  | 0.2 |  | > 200 | 0.8 |  | 3.1 | 1.6 |  | 3.1 |  | 3.1 | 200 | MIC (Strep. Faecalis HH 34358): 50 µg/mL; MIC (E. coli SK 12140; in vitro, G-, E. coli SK 12140, read-out: MIC): 1.6 µg/mL; MIC [2]: 3.1 µg/mL

From patent US4278670A, “7-Alpha-oxyiminoacylcephalosporins” (SmithKline Corporation, priority 1976, dated 1981)
